This note sets out measurements from US20060292683A1, “Cross-beta structures on microbial organisms” (Crossbeta Biosciences B.V., priority 2005, published 2006).

In test [1] the test system is protein and peptide aggregates with cross-β structure conformation. In words: ELISA binding to immobilized peptides with cross-β structure conformation. As to conditions: immobilized Aβ, FP13, TTR11, LAM12 or IAPP; GST-tagged F domains. The source says:
FIG. 2: Binding of tPA, factor XII, fibronectin and finger domains thereof to compounds with cross-β structure. Panels A-C: Full-length purified tPA (Panel A), factor XII (Panel B) and fibronectin (Panel C) bind to immobilized peptides with cross-β structure conformation, in an ELISA.
Previously, we established that tissue-type plasminogen activator specifically interacts with protein and peptide aggregates that comprise a cross-β structure conformation, a structural element found in amyloid-like polypeptide assemblies (Bouma et al., 2003; Kranenburg et al., 2002). Now, we expanded this analysis to other proteins that resemble tPA domain architecture and we separated domains of tPA. Binding of full-length tPA, factor XII and fibronectin, as well as of fibronectin type I (finger, F) domains of tPA and factor XII and F4-5 of fibronectin, to protein and peptide aggregates with cross-β structure conformation was analyzed in an ELISA. […] Binding of tPA and factor XII was established for immobilized amyloid-β(1-40) (Aβ) with amyloid-like properties, fibrin peptide FP13, that encompasses the tPA activating sequence 148KRLEVDIDIKIR160 (SEQ ID NO:——————) of the fibrin α-chain, TTR11, which is an 11 amino-acid residues peptide from transthyretin that forms cross-β structure, and LAM12, which is a 12 amino-acid residues peptide from laminin that forms cross-β structure (FIG. 2, Panels A and B). Negative controls were freshly dissolved, monomerized Aβ and non-amyloid murine islet amyloid polypeptide (mIAPP). For fibronectin, human amyloid IAPP is depicted instead of LAM12 (FIG. 2, Panel C).

A further test has as its system Escherichia coli TOP10. In words: ROS production by bEnd.3 endothelial cells upon exposure to E. coli TOP10. The format is cell-based. Conditions: 8.1×10^7 E. coli cells/ml with either 1.25 mg/ml IgIV, 0.8 mg/ml finger domains, 220 μM Congo red, 220 μM ThT or 1.1 μM tPA. The source says:
(§1) Glycated proteins comprising a cross-beta structure and amyloid-β induce inflammatory responses and are believed to contribute to the pathogenesis of certain protein misfolding diseases (diabetes type II, Alzheimer's disease). In general, misfolded proteins induce cellular dysfunction with enhanced expression or activation of inflammatory signals. The effect of misfolded proteins on endothelial cell (dys)function is, for example, measured by determining the levels of reactive oxygen species or nitric oxide or tissue factor in response to misfolded proteins. Human umbilical vein endothelial cells (HUVEC) that are isolated and cultured, according to standard protocols, are used, or other endothelial cells such as the murine microvascular bEnd.3 endothelial cell line. The levels of reactive oxygen species (ROS), like, for example, nitric oxide, are monitored using fluorescent probes, such as CM-H2DCF-DA. Alternatively, cell viability is monitored by standard MTT-assay. The levels of tissue factor expression is determined using a chromogenic assay with purified factor VII, purified factor X and chromogenic substrate S-2765 (Chromogenix), using cell lysates. For example, bEnd.3 cells are seeded at 120,000 cells/well of a 96-well culture dish, and cultured overnight. […]
(§2) To assess production of reactive oxygen species by cultured mouse microvascular bEnd.3 endothelial cells (ECs), cells are seeded at 128,000 cells/well of a 96-well plate (Costar, 3904). […] For the analysis of ROS production, 10 μl of tester samples and controls are added to separate wells, and fluorescence is measured every two minutes for 70 minutes upon excitation at 488 nm with the emission wavelength set to 538 nm. […]

Test [2] has as its system S. aureus Newman. In words: ROS production by bEnd.3 endothelial cells upon exposure to S. aureus Newman. The format is cell-based, Staphylococcus aureus. As to conditions: 1.13×10^8 S. aureus cells/ml with either 1.25 mg/ml IgIV, 0.8 mg/ml finger domains, 220 μM Congo red, 220 μM ThT or 1.1 μM tPA.
Source text: as §1, §2

Test [3] deals with S. aureus Newman. Put plainly: Binding of dyes to S. aureus Newman by visual inspection. Further details: species or system Staphylococcus aureus. Conditions: S. aureus Newman after incubation with Thioflavin T, Congo red, tPA and IgIV. Here is the method: (§3) Staphylococcus aureus Newman, which was a kind gift of Dr. Jos van Strijp and Dr Kok van Kessel (Dept. of Microbiology, University Medical Center Utrecht, the Netherlands) was plated on a blood plate from a stock stored at −70° C., and incubated overnight at 37° C. The plate was stored at 4° C. Escherichia coli strain TOP10 (Invitrogen, 44-0301) was plated on agar with Luria broth medium from a −80° C. glycerol stock, and incubated overnight at 37° C. The plate was stored at 4° C. Overnight cultures of 5 ml in Luria broth medium were grown at 37° C. with vigorous shaking and aeration, by streaking a single colony with the tip of a pipet and transferring the tip to the medium in a 15-ml tube. The cell density in overnight cultures was determined by measuring the absorbance at 600 nm (A600=1 is equivalent with 0.8×10^9 cells/ml). Cells were pelleted by centrifugation for one minute at 16,000*g or for ten minutes at 3,000*g. Medium was discarded. One half of the cells were resuspended in PBS in 1/10 of the original medium volume (10× concentration of the cells) by pipetting and swirling. These cells were used as reference cells. […]
(§4) Binding of cross-beta structure binding compounds to E. coli TOP10 and S. aureus Newman after incubation of the bacteria with Thioflavin T, Congo red, tPA and IgIV, as described in the Materials & Methods section, was determined in two ways. […]

Another test relates to E. coli TOP10. Put plainly: Binding of dyes to E. coli TOP10 by visual inspection. Further details: species or system Escherichia coli. Conditions: E. coli TOP10 after incubation with Thioflavin T, Congo red, tPA and IgIV. The protocol: as §3, §4

For “tPA: tissue-type plasminogen activator (Actilyse, Boehringer-Ingelheim)”, the “binding to cross-β structure rich compounds in ELISA” value (shortened to “binding … in ELISA”) in test [1] is listed as “bind specifically”. The “effect on ROS production by bEnd.3 ECs, co-incubation” value (“effect on ROS production” for short) in the test with Escherichia coli TOP10 was “not able to reduce ROS production”; with S. aureus Newman [2], “does not influence S. aureus induced ROS production”.

With `Nc1c(/N=N/c2ccc(-c3ccc(/N=N/c4cc(S(=O)(=O)O)c5ccccc5c4N)cc3)cc2)cc(S(=O)(=O)O)c2ccccc12` [Congo red], the “binding of dye to bacterium cells, visual inspection” value in the test on S. aureus Newman [3] was “intense red”. For the same molecule, the “effect on ROS production” value is “reverse ROS production” in the test with Escherichia coli TOP10 and “strongly inhibits ROS expression” with S. aureus Newman [2].

As for “fibronectin: full-length purified fibronectin”, in test [1], the “binding … in ELISA” value is on record as “bind specifically”.

As to `Cc1ccc2c(c1)sc(-c1ccc(N(C)C)cc1)[n+]2C.[Cl-]` [Thioflavin T], the “effect on ROS production” value with Escherichia coli TOP10 is “to some extent”; with S. aureus Newman [2], “slightly decrease ROS production”. The “binding of dye to bacterium cells, visual inspection” value in the test on E. coli TOP10 is reported as “bound to the cells”.

On to “fibronectin F4-5: recombinant fibronectin type I domains 4-5 of fibronectin with carboxy terminal GST-tag”, for which the “binding … in ELISA” value in test [1] is “bind specifically”.

B1: factor XII: full-length purified factor XII (protein, UniProt P00748 1-615, looked up)
chain: MRALLLLGFLLVSLESTLSIPPWEAPKEHKYKAEEHTVVLTVTGEPCHFPFQYHRQLYHKCTHKGRPGPQPWCATTPNFDQDQRWGYCLEPKKVKDHCSKHSPCQKGGTCVNMPSGPHCLCPQHLTGNHCQKEKCFEPQLLRFFHKNEIWYRTEQAAVARCQCKGPDAHCQRLASQACRTNPCLHGGRCLEVEGHRLCHCPVGYTGAFCDVDTKASCYDGRGLSYRGLARTTLSGAPCQPWASEATYRNVTAEQARNWGLGGHAFCRNPDNDIRPWCFVLNRDRLSWEYCDLAQCQTPTQAAPPTPVSPRLHVPLMPAQPAPPKPQPTTRTPPQSQTPGALPAKREQPPSLTRNGPLSCGQRLRKSLSSMTRVVGGLVALRGAHPYIAALYWGHSFCAGSLIAPCWVLTAAHCLQDRPAPEDLTVVLGQERRNHSCEPCQTLAVRSYRLHEAFSPVSYQHDLALLRLQEDADGSCALLSPYVQPVCLPSGAARPSETTLCQVAGWGHQFEGAEEYASFLQEAQVPFLSLERCSAPDVHGSSILPGMLCAGFLEGGTDACQGDSGGPLVCEDQAAERRLTLQGIISWGSGCGDRNKPGVYTDVAYYLAWIREHTVS
modifications: full-length
Turning to B1, the “binding … in ELISA” value in test [1] is “bind specifically”.
